Measurements published in US7071197B2, “N,N-disubstituted diazocycloalkanes” (Recordati S.A., priority 2002, dated 2006).

Columns and labels:
[1] = target: T1, human 5HT1A-serotonergic receptor (Homo sapiens, UniProt P08908); assay: [3H]8-OH-DPAT radioligand binding to human recombinant 5-HT1A receptors; conditions: for Ki: [3H]8-OH-DPAT, HeLa cell membranes, read-out: Affinity: Ki; for potency at the 5-HT1A receptor compared with Ex. 5: statistical signficance p<0.01
T1 construct: expressed in transfected cells
T1 sequence (P08908 1-422): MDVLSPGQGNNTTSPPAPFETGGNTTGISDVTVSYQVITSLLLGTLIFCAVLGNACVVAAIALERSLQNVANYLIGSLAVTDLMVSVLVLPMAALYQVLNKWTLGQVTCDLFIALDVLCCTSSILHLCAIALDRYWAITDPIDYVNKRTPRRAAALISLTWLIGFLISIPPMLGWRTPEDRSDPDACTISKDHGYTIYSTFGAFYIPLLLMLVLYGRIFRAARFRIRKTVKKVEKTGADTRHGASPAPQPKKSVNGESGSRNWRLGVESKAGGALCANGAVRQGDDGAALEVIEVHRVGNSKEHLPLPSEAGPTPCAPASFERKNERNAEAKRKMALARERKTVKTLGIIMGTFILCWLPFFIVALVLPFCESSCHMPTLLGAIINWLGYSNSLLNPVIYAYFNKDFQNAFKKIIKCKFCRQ
Method: (§1) A genomic clone coding for the human 5HT1A-serotonergic receptor was stably transfected in a human cell line (HeLa). HeLa cells were grown as monolayers in Dulbecco's modified Eagle medium (DMEM), containing 10% fetal bovine serum, gentamycin (0.1 mg/ml) and 5% carbon dioxide, at 37° C. The cells were detached from the growth flask at 95% confluence by a cell scraper and were lysed in cold 5 mM Tris and 5 mM EDTA buffer (pH 7.4). The homogenates were centrifuged at 40000×g×20 minutes and the pellets were resuspended in a small volume of cold 5 mM Tris and 5 mM EDTA buffer (pH 7.4) and immediately frozen and stored at −70° C. until use.
[^3H]8-OH-DPAT binding: on the day of experiment, the cell membranes were resuspended in incubation buffer: 50 mM Tris HCl (pH 7.4), 2.5 mM MgCl2, […] (Fargin et al., Nature 335, 358–360, 1988). The membranes were incubated in a final volume of 1 ml for 30 minutes at 30° C. with 1 nM [^3H]8-OH-DPAT, in the absence or presence of the test compounds. Non-specific binding was determined in the presence of 10 μM 5-HT. Incubation was stopped by addition of cold Tris-HCl buffer and rapid filtration through a 0.2%-polyethyleneimine-pretreated Whatman-GF/B or Schleicher-&-Schuell-GF52 filter.
The affinity of the tested compounds was evaluated as inhibition of specific binding of the radioligand to 5-HT1A receptors (IC50) by using the non-linear curve-fitting program (De Lean et al., Am. J. Physiol. 235, E97-E102, 1978). The IC50 value was converted to an affinity constant (Ki) by the equation of Cheng et al., Biochem. Pharmacol. 22, 3099–3108 (1973).

[2] = target: T2, rat D3 dopamine receptors (Rattus norvegicus, UniProt P19020); assay: [3H]-7-OH-DPAT binding to rat recombinant D3 dopamine receptors (SPA); conditions: for Ki: [3H]-7-OH-DPAT, CHO cell membranes, read-out: Binding affinity for D3 dopamine receptors Ki; for D3/5-HT1A: selectivity: ratio of Ki at D3 and Ki at 5-HT1A
T2 construct: expressed in transfected cells; host or cells: CHO cells (permanent expression)
T2 sequence (P19020 whole entry): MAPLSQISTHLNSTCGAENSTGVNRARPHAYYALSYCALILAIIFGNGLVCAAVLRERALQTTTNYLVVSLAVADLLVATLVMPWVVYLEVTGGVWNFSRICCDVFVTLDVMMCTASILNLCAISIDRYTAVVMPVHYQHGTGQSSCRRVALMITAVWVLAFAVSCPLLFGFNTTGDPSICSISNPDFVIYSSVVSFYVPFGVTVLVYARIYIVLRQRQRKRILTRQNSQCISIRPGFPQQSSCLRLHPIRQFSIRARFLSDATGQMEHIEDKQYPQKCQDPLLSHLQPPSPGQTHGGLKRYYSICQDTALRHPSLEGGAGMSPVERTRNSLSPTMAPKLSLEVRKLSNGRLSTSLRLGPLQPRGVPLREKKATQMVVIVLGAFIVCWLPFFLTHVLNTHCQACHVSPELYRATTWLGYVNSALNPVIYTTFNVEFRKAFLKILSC
Method: Cloned rat D3 dopamine receptors permanently expressed in CHO cells were used (Chio et al. Mol. Pharmacol. 45, 51–60, 1994). Membranes were prepared by mechanical disruption of cell pellets in ice cold 50 mM Tris, 5 mM EDTA, 5 mM EGTA, pH 7.4 followed by low (100 g), medium (20000 g) and high (80000 g) speed centrifugation steps. Competition radioligand binding experiments employed 11 drug concentrations run in duplicate in a scintillation proximity assay (SPA) format. The radioligand used was [^3H]-7-OH-DPAT (154 Ci/mmol). […] binding (75–95% of total) was defined with cold haloperidol added in excess (3 μM). Total binding was determined with buffer: 20 mM HEPES, 10 mM MgSO4, 150 mM NaCl, 1 mM EDTA (pH 7.4). Binding mixtures were made in flexible, 96-well, Wallac Micro-Beta plates by the addition of 11 μl of drug dilution, 11 μl of radioligand, and 178 μl of membrane/SPA bead suspension (100 mg of WGA-coated SPA beads incubated with 5–15 μg protein/plate in 10 ml binding buffer for 30 minutes at room temperature followed by low-speed centrifugation and resuspension in 2 ml binding buffer). After sealing and incubation at room temperature for 1 hour the plates were counted in a Wallac Micro-Beta scintillation counter.
IC50 values from both assay methods were estimated by fitting the data to a one-site competition model: Y=T/(1+10^log(X)−log(IC50)), where Y is the specific CPM's bound at concentration X and T is the specific CPM's bound in the absence of competitor. Inhibition constants (Ki) were calculated using the Cheng-Prushoff equation (Biochem. Pharmacol. 22: 3099–3108, 1973).

[3] = target: T3, human cloned 5-HT1A receptors (Homo sapiens, UniProt P08908); assay: [35S]GTPγS binding, membranes of HeLa cells transfected with human cloned 5-HT1A receptors; format: biochemical; conditions: 5-HT maximal stimulation taken as 100%
T3 construct: expressed in transfected cells
T3 sequence (P08908 1-422): T1 sequence (P08908 1-422)
Method: as §1
[^35S]GTPγS binding: on the experimental day, cell membranes from HeLa cells transfected with human cloned 5-HT1A receptors were resuspended in buffer pH 7.4 containing 20 mM HEPES, 3 mM MgCl2 and 120 mM NaCl (Stanton, J. A.; Beer, M. S. Eur. J. Pharmacol. 320, 267–275, 1997). The membranes were incubated with 10 μM GDP and decreasing concentrations of test drugs (from 100 μM to 0.1 nM) or decreasing concentrations of 5-HT (from 100 μM to 0.1 nM, reference curve) for 20 min at 30° C. in a final volume of about 0.25 ml. [^35S]GTPγS ([…] in 10 μl) was added to samples and incubated for a further 30 min at 30° C. Non-specific binding was determined in the presence of 10 μM GTPγS. The incubation was stopped by addition of ice-cold HEPES buffer and rapid filtration on Unifilter GF/C filters, using a Filtermate cell harvester (Packard). The filters were washed four times with total 1.2 ml of same buffer. Radioactivity was counted by liquid scintillation spectrometry with efficiency >90% (TopCount Packard). Stimulation of [^35S]GTPγS binding induced by the compounds tested was espressed as % increase in binding above basal value, being the maximal stimulation observed with 5-HT taken as 100%. The concentration-response curve of the agonistic activity was analyzed by non linear fitting program (De Lean et al., Am. J. Physiol. 235, E97-E102, 1978).
A stimulation of [^35S]GTPγS binding represented the functional correlate of the binding of an agonist compound at the 5-HT1A receptors. Stimulation induced by the endogenous ligand 5-HT was considered the maximal stimulation attainable.

Structure (SMILES)	Ki [1] [nM]	potency at the 5-HT1A receptor compared with Ex. 5 [1]	Ki [2] [nM]	D3/5-HT1A [2]	Functional effect ([35S]GTPγS binding) [3]
COc1ccccc1N1CCN(CC[C@@H](c2ccccc2F)[C@H](O)C2CCCCC2)CC1 (racemic) [Ex. 1, 1-[(SR-RS)-4-cyclohexyl-4-hydroxy-3-(2-fluorophenyl)-butyl]-4-(2-methoxyphenyl)-piperazine]	0.13	more potent than Ex. 5	12.5	96	Neutral antagonist
COc1ccccc1N1CCN(CC[C@H](c2ccccc2)[C@@H](O)C2CCCCC2)CC1 (racemic) [Ex. 5, 1-[(RS,SR)-4-Cyclohexyl-4-hydroxy-3-phenyl-butyl]-4-(2-methoxyphenyl)-piperazine, reference compound]	0.65		7	11	Neutral antagonist
COc1ccccc1N1CCN(CC[C@H](c2ccccc2F)[C@@H](O)C2CCCCC2)CC1 [Ex. 1Y, 1-[(3R,4S)-4-cyclohexyl-4-hydroxy-3-(2-fluorophenyl)-butyl]-4-(2-methoxyphenyl)-piperazine]	0.37	more potent than Ex. 5	20	54	Neutral antagonist
COc1ccccc1N1CCN(CC[C@H](c2ccccc2F)[C@H](O)C2CCCCC2)CC1 [Ex. 2X, 1-[(3R,4R)-4-cyclohexyl-4-hydroxy-3-(2-fluorophenyl)-butyl]-4-(2-methoxyphenyl)-piperazine]	0.24	more potent than Ex. 5	3	12	Neutral antagonist
